Experimental findings from patent US20240239792A1, “MODULATORS OF BCL-2 OR BCL-2/BCL-XL AND USES THEREOF” (APPICINE THERAPEUTICS (HK) LIMITED, priority 2021, published 2024) are described below.

For data set [1], the target named is T1, BCL-XL (Homo sapiens, UniProt Q07817).
T1 construct: purchased Cisbio 63ADK000CB04PEG
In words: HTRF BCL-XL/BAK assay (Cisbio). The class given is binding. The settings on record: recombinant human Tag1-BCL-XL 2 nM, Tag2-BAK 5 nM. The procedure:
(§1) Then the pre-mixed anti-Tag1-Eu^3+ and anti-tag2-XL665 were added to the plate and further incubated at room temperature for another 2 hours. The signals ([…]) were read on Envision 2104 instrument. The IC50 for each compound was derived from fitting the signal of 665/615 nM to the increasing compound concentration.
(§2) Using the above assays, the following compounds were tested.
For orientation: TR-FRET usually uses a lanthanide donor and a delayed reading to cut background.

Data set [2] deals with T2, BCL-2 (Homo sapiens, UniProt P10415).
T2 construct: purchased Cisbio 63ADK000CB01PEG
T2 sequence (P10415 whole entry): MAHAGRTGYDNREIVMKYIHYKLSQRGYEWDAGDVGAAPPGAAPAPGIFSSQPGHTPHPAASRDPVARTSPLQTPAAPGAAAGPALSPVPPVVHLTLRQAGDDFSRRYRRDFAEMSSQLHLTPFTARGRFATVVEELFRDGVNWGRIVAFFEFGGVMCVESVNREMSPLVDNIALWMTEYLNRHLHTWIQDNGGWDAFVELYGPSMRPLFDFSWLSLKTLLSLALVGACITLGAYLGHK
In words: HTRF BCL-2/BAK assay (Cisbio). Format: binding. Particulars: recombinant human Tag1-BCL-2 2 nM, Tag2-BAK 10 nM. The procedure:
as §1, §2

Data set [3] concerns RS4;11 subcutaneous xenograft tumor. In words: In vivo pharmacodynamic study, NOD/SCID RS4;11 subcutaneous xenograft tumor model. The arrangement: species or system NOD/SCID female mouse. Particulars: q.d., after 20 days dosing. The procedure: In general, NOD/SCID RS4;11 subcutaneous xenograft tumor model was established by inoculating 5*10^6/0.1 ml/mouse subcutaneously in the right back of the NOD/SCID female mouse. The animals were checked daily for any effects of treatments on behaviors such as mobility, food and water consumption, body weight gain/loss, eyes, hairs and any other abnormalities. Mortality and clinical signs observed during the study were recorded in the raw data. Animal weight and tumor size were measured every two days during the study. Tumor volume (TV) was calculated as: TV=0.5*a*b^2, wherein a and b represent the measured length and width of tumor, respectively. Relative tumor proliferation inhibition rate (TGIRTV (%)), as an indication of anti-tumor effectiveness, was calculated as: TGIRTV (%)=(1−TRTV/CRTV)*100%, wherein TRTV and CRTV were relative tumor volume (RTV) in treatment group and vehicle control group, respectively. RTV was calculated as: RTV=Vt/V0, wherein Vt and V0 represented the tumor volume measured on day t after dosing and on the first day of dosing. At the end of last dosing, plasma and tumor tissue were collected, weighed, and photographed according to requirements of the study protocol.
The TGIRTV(%) values after 20 days dosing were shown in Table 5 below, where “+++” represented TGIRTV(%)≥[…]; “++” represented 30%<TGIRTV(%)<80%. p.o. stands for “per os”; I.P. stands for “intraperitoneal”; q.d. refers to “once daily”.

Data set [4] deals with DOHH2 cells. In words: CellTiter-Glo cell proliferation assay, DOHH2 cells. Format: cell-based. The settings on record: Homo sapiens, DOHH-2, 72 hours. The gist of the method: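 GI50 derived from CellTiter-Glo luminescent viability signal. Cells grown in DMEM with 10% FBS received a compound dilution series for 72 h (37 °C, 5% CO2).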
Background: Cellular ATP, detected with luciferase, serves as a proxy for viable cell number.

Data set [5] addresses T3, CYP2C9 (Homo sapiens, UniProt P11712).
T3 construct: from tissue; host or cells: human liver microsomes
Kind of data set: CYP2C9 activity assay in human liver microsomes, substrate diclofenac. Format: in vitro ADME. The settings on record: probe diclofenac, test compound 1 μM, 37° C. 10 min, read-out: Inhibition rate (%) against CYP2C9 Enzyme. Here is the method: In this assay, several exemplary compounds of the present disclosure and a control compound (Venetoclax) were used as the test compounds. In general, the assay was conducted by the following steps: • 1. The solution of test compound, human liver microsomes solution, and substrate (diclofenac) solution were mixed in a 96-well assay plate on ice to, and the final concentration of each test compound is 1 μM; • 2. The 96-well assay plate and NADPH solution were pre-incubated at 37° C. for 5 minutes; • 3. NADPH solution was added to into the assay plates to initiate the reaction; • 4. The assay plate was incubated at 37° C. for 10 min; • 5. The reaction was stopped; and after quenching, a portion of the supernatant was taken from each well for LC/MS analysis; • 6. The inhibition rate was calculated by the following equation: Inhibition rate (%)=(1−Valuetest/Valuecontrol)×100%, where Valuetest refers to the LC/MS data obtained from wells with test compounds and Valuecontrol refers to the LC/MS data obtained from wells without test compound.
On the technique in general: Microsomes from liver hold many membrane-bound enzymes, among them those of drug oxidation.

T3 sequence (P11712 whole entry): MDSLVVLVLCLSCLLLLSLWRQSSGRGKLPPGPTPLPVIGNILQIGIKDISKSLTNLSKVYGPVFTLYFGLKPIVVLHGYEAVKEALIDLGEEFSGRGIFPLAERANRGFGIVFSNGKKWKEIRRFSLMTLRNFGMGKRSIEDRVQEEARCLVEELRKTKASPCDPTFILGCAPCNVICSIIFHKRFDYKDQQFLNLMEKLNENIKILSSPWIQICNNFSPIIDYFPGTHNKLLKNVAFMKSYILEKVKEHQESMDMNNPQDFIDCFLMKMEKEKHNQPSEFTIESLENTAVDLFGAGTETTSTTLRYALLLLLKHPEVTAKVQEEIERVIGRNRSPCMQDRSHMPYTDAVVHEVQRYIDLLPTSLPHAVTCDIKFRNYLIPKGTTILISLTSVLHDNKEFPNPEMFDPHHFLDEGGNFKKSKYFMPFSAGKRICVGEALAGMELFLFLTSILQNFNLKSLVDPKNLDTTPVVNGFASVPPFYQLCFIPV
T1 sequence (Q07817 whole entry): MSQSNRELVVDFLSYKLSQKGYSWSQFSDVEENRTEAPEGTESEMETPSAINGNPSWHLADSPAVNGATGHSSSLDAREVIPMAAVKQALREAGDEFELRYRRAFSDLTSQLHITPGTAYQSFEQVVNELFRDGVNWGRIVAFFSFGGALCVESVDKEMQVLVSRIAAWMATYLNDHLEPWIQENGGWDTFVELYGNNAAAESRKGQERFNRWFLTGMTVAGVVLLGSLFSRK

For orientation: IC50 means the concentration that inhibits the measured activity by half. Broadly, the GI50 is the concentration that inhibits growth by half. Low values mean more potent growth inhibition, high ones less potent growth inhibition. Broadly, the inhibition is the share of the control response that was lost under treatment. On to `O=C(NS(=O)(=O)c1ccc(NCC2CC3(CCN(CC(F)F)CC3)C2)c([N+](=O)[O-])c1)c1ccc(N2CCN([C@@H]3CCCCc4c(Cl)cccc43)CC2)cc1Oc1cnc2[nH]ccc2c1` [Compound 113, (R)-2-((1H-pyrrolo[2,3-b]pyridin-5-yl)oxy)-4-(4-(1-chloro-6,7,8,9-tetrahydro-5H-benzo[7]annulen-5-yl)piperazin-1-yl)-N-((4-(((7-(2,2-difluoroethyl)-7-azaspiro[3.5]nonan-2-yl)methyl)amino)-3-nitrophenyl)sulfonyl)benzamide], for which the IC50 in data set [1] was 20 to 200 nM; in data set [2] it was less than 20 nM. The “TGIRTV(%)” value in data set [3] (50 mg/kg, p.o.) is recorded as “+++ (TGIRTV(%)≥800)”. Besides, the GI50 in data set [4] is less than 50 nM. Moreover, the inhibition at 10 min, 1 µM in data set [5] is less than 30%.
As for `O=C(NS(=O)(=O)c1ccc(NCC2CC3(CCN(CCF)CC3)C2)c([N+](=O)[O-])c1)c1ccc(N2CCN([C@@H]3CCCCc4c(Cl)cccc43)CC2)cc1Oc1cnc2[nH]ccc2c1` [Compound 114, (R)-2-((1H-pyrrolo[2,3-b]pyridin-5-yl)oxy)-4-(4-(1-chloro-6,7,8,9-tetrahydro-5H-benzo[7]annulen-5-yl)piperazin-1-yl)-N-((4-(((7-(2-fluoroethyl)-7-azaspiro[3.5]nonan-2-yl)methyl)amino)-3-nitrophenyl)sulfonyl)benzamide], the IC50 in data set [1] and in data set [2] was less than 20 nM throughout. Besides, the “TGIRTV(%)” value in data set [3] (50 mg/kg, p.o.) is given as “+++ (TGIRTV(%)≥800)”. Also, the GI50 in data set [4] is less than 50 nM. Moreover, in data set [5], the inhibition at 10 min, 1 µM was less than 30%.
On to `O=C(NS(=O)(=O)c1ccc(NCC2CC3(CCNCC3)C2)c([N+](=O)[O-])c1)c1ccc(N2CCN([C@@H]3CCCCc4c(Cl)cccc43)CC2)cc1Oc1cnc2[nH]ccc2c1` [Compound 104, (R)-2-((1H-pyrrolo[2,3-b]pyridin-5-yl)oxy)-N-((4-(((7-azaspiro[3.5]nonan-2-yl)methyl)amino)-3-nitrophenyl)sulfonyl)-4-(4-(1-chloro-6,7,8,9-tetrahydro-5H-benzo[7]annulen-5-yl)piperazin-1-yl)benzamide], for which the IC50 in data set [1] and in data set [2] was less than 20 nM throughout. The “TGIRTV(%)” value in data set [3] (21 mg/kg, I.P.) is listed as “+++ (TGIRTV(%)≥800)”. The GI50 in data set [4] was less than 50 nM. Further, in data set [5], the inhibition at 10 min, 1 µM is less than 30%.
In the case of `O=C(NS(=O)(=O)c1ccc(NCCN2CCOCC2)c([N+](=O)[O-])c1)c1ccc(N2CCN(C3CCCCc4c(Cl)cccc43)CC2)cc1Oc1cnc2[nH]ccc2c1` (stereo not shown) [Compound 31, 2-((1H-pyrrolo[2,3-b]pyridin-5-yl)oxy)-4-(4-(1-chloro-6,7,8,9-tetrahydro-5H-benzo[7]annulen-5-yl)piperazin-1-yl)-N-((4-((2-morpholinoethyl)amino)-3-nitrophenyl)sulfonyl)benzamide], the figures for the IC50 in data set [1] and in data set [2] were 20 to 200 nM and less than 20 nM, respectively. Moreover, the “TGIRTV(%)” value in data set [3] (25 mg/kg, p.o.) was “++ (30%<TGIRTV(%)<80%)”. In data set [4], the GI50 was less than 50 nM.
For the molecule `O=C(NS(=O)(=O)c1ccc(NCC2CCOCC2)c([N+](=O)[O-])c1)c1ccc(N2CCN([C@@H]3CCCCc4c(Cl)cccc43)CC2)cc1Oc1cnc2[nH]ccc2c1` [Compound 70, (R)-2-((1H-pyrrolo[2,3-b]pyridin-5-yl)oxy)-4-(4-(1-chloro-6,7,8,9-tetrahydro-5H-benzo[7]annulen-5-yl)piperazin-1-yl)-N-((3-nitro-4-(((tetrahydro-2H-pyran-4-yl)methyl)amino)phenyl)sulfonyl)benzamide], the 50% inhibitory concentration (IC50) in data set [2] was less than 20 nM. In data set [3] (60 mg/kg, p.o.), the “TGIRTV(%)” value is “+++ (TGIRTV(%)≥800)”. Further, the GI50 in data set [4] is less than 50 nM.
